Assay results from patent US6989143B1, “Depletion method of blood plasma ascorbate” (priority 2000, dated 2006).

Experiments:
[1] = tested on: pre-leukemia, or myelodysplastic syndromes(MDS); settings: in vitro; cited from earlier work
[2] = tested on: leukemic cells; settings: in vitro, small number of patients; cited from earlier work
[3] = Plasma ascorbate level in mice given sodium ascorbate or L-gulono-γ-lactone (HPLC-ECD); settings: 5 mmole/kg, intraperitoneal
Protocol: Time-dependent changes of plasma ascorbate level in mice given sodium ascorbate (-o-) and L-gulono-γ-lactone (-•-). Drugs were dissolved in distilled water and administered by intraperitoneal injections, both at 5 mmole/kg. Blood was taken from each animal time-sequentially for the assay of plasma ascorbate with HPLC-ECD, as described in MATERIALS AND METHODS. Zero time control animals were given 0.2 ml of normal saline. Data represent Mean±SD (n=3−5).
Specific pathogen-free female BALB/c mice (body weight, ca. 25 g) were used in the present study. Animals were obtained from Dae-Han Laboratory Animal Center (Daejeon, Korea) and cared for according to the ILAR guidelines in the animal care facility of Samsung Biomedical Research Center (Seoul, Korea). They were fed a diet from Jell Laboratory Chow (Seoul, Korea). Feed and water were offered ad libitum.
The animal was anesthetized with diethyl ether vapour and blood was obtained by choroidal venous plexus. About one ml of blood was collected into a microcentrifuge tube that contained 50 μl of 130 mM sodium citrate as an anticoagulant. […] The ascorbate content in the supernatant was measured directly by HPLC method. An aliquot of the sample was treated with 100 mM dithiothreitol at neutral pH to reduce dehydroascorbate to ascorbate, and then total ascorbate content was measured. […]

Row | Structure (SMILES) | share of MDS showing growth enhancement with LAA [1] [%] | share of MDS showing growth suppression with LAA [1] [%] | fraction of patients whose leukemic cell growth was modulated by LAA [2] | return of accumulated plasma ascorbate to normal levels [3]
1 | O=C1O[C@H]([C@@H](O)CO)C(O)=C1O [LAA, L-ascorbic acid] | 30 | 16 | approximately ½ | 
2 | O=C1O[C@H]([C@@H](O)CO)C([O-])=C1O.[Na+] [ascorbate, Sodium ascorbate] |  |  |  | rapidly diminished to normal levels within a few hours
